Patent US9545100B2, “Pesticidal compositions for insects and arthropods” (Stratacor, Inc., priority 2009, dated 2017)
Where two headings read alike, the source gives them in different places.

What was measured:
eggs of Aedes aegypti = settings: Cline 1972; cited from earlier work
Aedes aegypti mosquitoes [1] = assay: Olfactometer vapor phase repellency; assay type: in vivo; settings: FIG. 1
Source text: As frequently seen in homologous series of insect repellents (Skinner, W. A. and Johnson, H. L. The design of insect repellents. In: Drug Design, Vol. 10, E J Ariens, Ed., Academic Press, New York, pp. 277-305, 1980), activity at lower chain length is limited by lack of persistence due to high volatility. Activity at higher chain length is limited by lack of volatility, as mosquito repellents are required to have a minimum effective evaporation rate (Reifenrath, W. G. and Robinson, P. B. In Vitro Skin Evaporation and Penetration Characteristics of mosquito repellents. J. Pharm. Sci, 71:1014-1018, 1982; Reifenrath, W. G. and Spencer, T. S. Evaporation and penetration from skin. In: Percutaneous Absorption Mechanisms Methodology Drug Delivery, R L Bronaugh and H I Maibach, Eds., 1st Ed., Marcel Dekker, New York, pp. 305-325, 1985).
The straight chain fatty acids octanoic, nonanoic, decanoic, undecanoic, and lauric are designated as C8 through C12, respectively; 3-methylpentanoic acid as 3MPENTAN, 3-methyl-2-pentenoic acid as 3M2PENTEN, 2-octenoic acid as 2OCTEN, 3-methyl-2-octenoic acid as 3M2OCTEN, and 4-methyloctanoic acid as 4MOCTAN. N,N-Diethyl-m-toluamide is designated as DEET.

[2] = test system: Aedes aegypti instar IV larvae and pupae; settings: Quraishi and Thorsteinson 1965; cited from earlier work
house fly larvae = settings: Levinson and Simon Ascher 1954; cited from earlier work
[3] = 20° C.; cited from earlier work
Aedes aegypti mosquitoes [4] = test system: Aedes aegypti mosquitoes
Protocol: Fifteen female Aedes aegypti mosquitoes were placed in the dishes and their fate observed over a 48 hour period.
To further investigate the incapacitating and lethal effect of the C8910 composition, water dispersions of the same formulation of C8910 were tested in the laboratory against Aedes aegypti mosquitoes. Graded dilutions of C8910/Kaolin-P were prepared by dispersing the powder in water (2 grams of powder in 100 ml of water, the concentration used in the field) where the lowest concentration was 0.0075% (Table 1). One ml of each dispersion was evenly pipetted over a disk of filter paper (9 cm diameter, Whatman No. 1) contained in disposable petri dishes. Approximately 15 female Aedes aegypti mosquitoes, 6-10 days of age, were placed in the Petri dishes and covered to prevent mosquito escape. The dishes were maintained in an environmental chamber (76-80° F. and approximately 60% humidity) and observations were made of incapacitation and mortality at various times after treatments (Table 1).

[5] = emulsion formulations; cited from earlier work
Aedes aegypti = assay: Minimum effective dose to repel mosquitoes, applied to the skin; assay type: in vivo
Protocol: Notes: • 1. Even at the lowest dose (1.18 ug/cm2), there are behavioral effects from […]. […] After 16 minutes exposure, mosquitoes were transferred to fresh plates containing only distilled water. […] […] and DEET (N,N-diethyl-m-toluamide) have similar potencies to repel Aedes aegypti when both are applied to the skin. The minimum effective dose (MED) of […] to repel mosquitoes is estimated at 25 ug/cm^2, the measured MED value for DEET.

[6] = 0.3000% in water dispersion, dose 47 ug/cm2

C=CCCCCCCCCC(=O)O [undecylenic]
ovicidal activity (eggs of Aedes aegypti): ovicidal activity

CCCCCCCCC(=O)O [C9, nonanoic acid]
ovicidal activity (eggs of Aedes aegypti): ovicidal activity | repellency in olfactometer (Aedes aegypti mosquitoes [1]): at or near the top of the repellency

CCN(CC)CC(=O)Nc1c(C)cccc1C [lidocaine free base, lidocaine]
fly incapacitation (flies; freshly prepared aqueous emulsions 47 ug/cm^2 or 15% concentration in mineral oil): did not cause fly incapacitation

CCCCCCCCCCCC(=O)O [Lauric acid, lauric acid]
toxicity to instar IV larvae and pupae [2]: not | larvicidal activity for housefly larvae (house fly larvae): declining activity | toxicity to flies (flies; EC formulation): non-toxic

CCCCCCCCCCC(=O)O [undecanoic acid]
larvicidal activity for housefly larvae (house fly larvae): declining activity

CCCCCCCC(=O)O [C8, octanoic acid]
ovicidal activity (eggs of Aedes aegypti): ovicidal activity | repellency in olfactometer (Aedes aegypti mosquitoes [1]): at or near the top of the repellency

CC1(C)C(C=C(Cl)Cl)C1C(=O)OCc1cccc(Oc2ccccc2)c1 (stereo not shown) [permethrin]
vapor pressure [3]: about 10^−8 mm Hg | reversibility of incapacitation (Aedes aegypti mosquitoes [4]; dose of 4.7 ug/cm^2): irreversible | skin absorption [5]: about 30% | reversibility of incapacitation (flies; dose of 4.7 ug/cm^2): irreversible

CC(O)C(=O)O (stereo not shown) [Lactic Acid, lactic acid]
% Incapac. in 10 m exp. (Aedes aegypti mosquitoes [4]; [6]): 0% | % Incapac. in 25 m exp. (Aedes aegypti mosquitoes [4]; [6]): 0% | % Incapac. in 24 h exp. (Aedes aegypti mosquitoes [4]; [6]): 17% | % motality at 24 hours (Aedes aegypti mosquitoes [4]; [6]): 17% | % motality at 48 hours (Aedes aegypti mosquitoes [4]; [6]): 17% | % Incapac. in 10 m exp. (Aedes aegypti mosquitoes [4]; 0.3000% in water dispersion, dose 47 ug/cm2, listed as lactic acid): no incapacitation | number dead, noted beside % Incapac. in 24 h exp. (Aedes aegypti mosquitoes [4]; 0.3000%, dose 47 ug/cm2): (2 dead) | toxicity to flies (flies; test of acidic pH): nontoxic to flies

CCN(CC)C(=O)c1cccc(C)c1 [DEET, N,N-diethyl-m-toluamide]
immediate incapacitation (Aedes aegypti mosquitoes [4]; 47 ug/cm^2): did not involve immediate incapacitation | mortality at 24 hours (Aedes aegypti mosquitoes [4]; 47 ug/cm^2): did cause fly and mosquito mortality | minimum effective dose (MED) to repel mosquitoes (Aedes aegypti): 25 ug/cm^2 | immediate incapacitation (flies; 47 ug/cm^2): did not involve immediate incapacitation | mortality at 24 hours (flies; 47 ug/cm^2): did cause fly and mosquito mortality

CCCCCCCCCC(=O)O [C10, decanoic acid]
repellency in olfactometer (Aedes aegypti mosquitoes [1]): at or near the top of the repellency
